Assays:
[1] = dissolution of Sumatriptan in ethanol; assay type: physicochemical; conditions: 2 mg, 4 mg or 6 mg of Sumatriptan for 0.75 ml of ethanol at 35%
Text: This coefficient can be modulated based on the degree of alcohol and the water/ethanol ratio that is used.

[2] = administered via the digestive tract; cited from earlier work
[3] = system: acute Cluster Headache attack; conditions: subcutaneous injection, single dosage of 6 mg, mean delay of 15 minutes; cited from earlier work
[4] = intra-nasal, 20 mg (nasal spray, Imigrane); cited from earlier work

dissolution in ethanol [1]: complete dissolution
SMILES: CNS(=O)(=O)Cc1ccc2[nH]cc(CCN(C)C)c2c1 [Sumatriptan]
mean volume of theoretical distribution in the human body [2]: 200 L
residual bioavailability [2]: less than 14 % of the administered dose
remission of the acute Cluster Headache attack [3]: 75%
mean bioavailability of the administered dose [4]: ≤ 10%
